Experimental data reported in BindingDB's records for doi:10.1021/ml5002954 (Uppsala University, 2014).

How the values were obtained:
[1] = target: Substance P 1-7 binding site; assay: Binding affinity to SP1-7 binding site
[2] = target: Substance P 1-7 binding site; assay: Displacement of [3H]-SP1-7 from SP1-7 binding site by scintillation counting analysis

NC(=O)[C@H](Cc1ccccc1)NC(=O)OCc1ccccc1
Ki [1]: 5.2 nM
IC50 [2]: 6.2 nM
Ki [2]: 5.2 nM

N#CNC(=O)[C@H](Cc1ccccc1)NC(=O)OCc1ccccc1
IC50 [2]: 17 nM

O=C(N[C@@H](Cc1ccccc1)C(=O)NNC(=O)c1ccccc1)OCc1ccccc1
IC50 [2]: 6.5 nM

O=C(N[C@@H](Cc1ccccc1)c1nnc(-c2ccccc2)o1)OCc1ccccc1
IC50 [2]: 9 nM
